Results published in ChEMBL document CHEMBL3217690, “Superiority of a novel EGFR targeted covalent inhibitor over its reversible counterpart in overcoming drug resistance” (Medchemcomm, 2012).
The source made the active and inactive calls. The rule behind the calls is not given here.

What was measured:
A-431 = test: Growth inhibition of human A431 cells harboring wild type EGFR assessed as reduction in cell viability after 72 hrs by CellTiter Glo assay; assay type: functional; details: A-431, 72 h
[1] = target: T1, Epidermal growth factor receptor (Homo sapiens, UniProt P00533); test: Covalent binding affinity to wild type EGFR (unknown origin) after 1 hr by mass spectrometry
T1 sequence (P00533 whole entry): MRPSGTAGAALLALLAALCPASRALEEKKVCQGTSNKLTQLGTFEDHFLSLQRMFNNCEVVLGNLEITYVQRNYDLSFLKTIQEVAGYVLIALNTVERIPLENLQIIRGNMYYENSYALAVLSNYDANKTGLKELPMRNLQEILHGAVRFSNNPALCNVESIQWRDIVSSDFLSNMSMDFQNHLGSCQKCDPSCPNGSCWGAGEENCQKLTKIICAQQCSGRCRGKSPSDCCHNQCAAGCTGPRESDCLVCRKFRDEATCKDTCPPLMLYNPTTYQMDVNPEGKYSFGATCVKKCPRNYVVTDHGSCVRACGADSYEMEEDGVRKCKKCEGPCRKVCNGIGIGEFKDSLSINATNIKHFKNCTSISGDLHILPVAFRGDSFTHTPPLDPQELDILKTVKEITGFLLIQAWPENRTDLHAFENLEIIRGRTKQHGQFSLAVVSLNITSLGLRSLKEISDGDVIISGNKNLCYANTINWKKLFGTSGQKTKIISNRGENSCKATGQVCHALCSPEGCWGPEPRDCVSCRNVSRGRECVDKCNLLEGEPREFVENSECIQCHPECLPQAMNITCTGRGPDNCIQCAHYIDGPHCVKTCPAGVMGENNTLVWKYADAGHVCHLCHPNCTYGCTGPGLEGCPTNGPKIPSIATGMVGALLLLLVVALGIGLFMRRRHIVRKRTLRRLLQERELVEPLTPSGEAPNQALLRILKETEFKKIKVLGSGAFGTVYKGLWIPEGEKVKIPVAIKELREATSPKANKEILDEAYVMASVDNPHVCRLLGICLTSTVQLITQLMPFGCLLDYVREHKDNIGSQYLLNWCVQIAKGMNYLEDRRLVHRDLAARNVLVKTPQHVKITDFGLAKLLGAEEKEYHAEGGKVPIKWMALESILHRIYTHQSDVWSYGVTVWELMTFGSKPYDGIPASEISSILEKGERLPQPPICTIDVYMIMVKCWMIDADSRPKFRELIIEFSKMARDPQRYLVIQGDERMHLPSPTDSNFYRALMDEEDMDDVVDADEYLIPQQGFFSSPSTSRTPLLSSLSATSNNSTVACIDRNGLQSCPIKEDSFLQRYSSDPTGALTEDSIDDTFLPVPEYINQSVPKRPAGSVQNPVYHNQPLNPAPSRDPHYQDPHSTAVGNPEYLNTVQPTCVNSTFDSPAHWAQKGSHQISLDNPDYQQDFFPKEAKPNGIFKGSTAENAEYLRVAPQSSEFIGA

NCI-H1975 = test: Growth inhibition of human NCI-H1975 cells harboring EGFR L858R/T790M mutant assessed as reduction in cell viability after 72 hrs by CellTiter Glo assay; assay type: functional; details: NCI-H1975, 72 h
[2] = target: T1, Epidermal growth factor receptor; test: Inhibition of wild type EGFR (unknown origin) using Y12-Sox peptide as substrate preincubated for 30 mins by fluorescence assay
[3] = target: T2, Epidermal growth factor receptor (Homo sapiens, UniProt P00533, L858R/T790M); test: Inhibition of EGFR L858R/T790M mutant (unknown origin) using Y12-Sox peptide as substrate preincubated for 30 mins by fluorescence assay; assay type: protein assay
T2 sequence (P00533 25-1210 T790M/L858R limits assumed): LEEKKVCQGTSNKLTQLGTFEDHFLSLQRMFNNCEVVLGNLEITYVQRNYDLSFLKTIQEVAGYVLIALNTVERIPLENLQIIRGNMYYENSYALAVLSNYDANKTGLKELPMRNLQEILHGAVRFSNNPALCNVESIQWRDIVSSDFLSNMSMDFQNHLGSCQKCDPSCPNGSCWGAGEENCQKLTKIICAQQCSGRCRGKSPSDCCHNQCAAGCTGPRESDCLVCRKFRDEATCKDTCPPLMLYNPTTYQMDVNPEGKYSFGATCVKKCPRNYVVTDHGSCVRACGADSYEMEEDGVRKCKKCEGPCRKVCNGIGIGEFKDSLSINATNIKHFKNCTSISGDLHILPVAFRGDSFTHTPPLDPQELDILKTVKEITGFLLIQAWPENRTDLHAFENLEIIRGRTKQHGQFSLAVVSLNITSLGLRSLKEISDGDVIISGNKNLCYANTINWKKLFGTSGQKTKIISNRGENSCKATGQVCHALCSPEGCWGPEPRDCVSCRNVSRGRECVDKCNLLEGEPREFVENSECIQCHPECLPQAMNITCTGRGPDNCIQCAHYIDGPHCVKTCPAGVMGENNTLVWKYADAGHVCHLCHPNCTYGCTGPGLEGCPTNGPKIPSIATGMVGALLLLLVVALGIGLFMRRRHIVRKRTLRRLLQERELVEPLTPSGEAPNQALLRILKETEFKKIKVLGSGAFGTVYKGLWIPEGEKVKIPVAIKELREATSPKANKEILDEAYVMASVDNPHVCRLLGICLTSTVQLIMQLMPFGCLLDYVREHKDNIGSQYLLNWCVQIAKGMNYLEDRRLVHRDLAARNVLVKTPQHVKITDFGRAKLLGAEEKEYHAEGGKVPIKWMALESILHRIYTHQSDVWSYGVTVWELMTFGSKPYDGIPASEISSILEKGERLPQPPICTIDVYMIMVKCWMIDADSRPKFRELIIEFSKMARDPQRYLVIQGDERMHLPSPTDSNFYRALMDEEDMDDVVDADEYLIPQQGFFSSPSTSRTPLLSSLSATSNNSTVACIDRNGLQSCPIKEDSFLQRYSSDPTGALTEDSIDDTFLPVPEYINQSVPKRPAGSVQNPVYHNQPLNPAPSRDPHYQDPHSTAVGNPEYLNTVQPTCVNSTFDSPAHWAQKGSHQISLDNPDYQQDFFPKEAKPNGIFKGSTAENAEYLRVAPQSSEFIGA

[4] = target: T1, Epidermal growth factor receptor; test: Inhibition of EGF-induced EGFR autophosphorylation in human A431 cells at 1 uM after 30 mins by immunoblotting method; assay type: cell-based; details: A-431
[5] = Growth inhibition of human HCC827 cells harboring EGFR E746 to E750 deletion mutant assessed as reduction in cell viability after 72 hrs by CellTiter Glo assay; assay type: functional; details: HCC827, 72 h
[6] = target: T1, Epidermal growth factor receptor; test: Irreversible inhibition of EGF-induced EGFR autophosphorylation in human A431 cells assessed as residual activity compound preincubated at 1 uM for 1 to 8 hrs measured after 1 hr post compound washout by immunoblotting method; assay type: cell-based; details: A-431
[7] = target: T2, Epidermal growth factor receptor; test: Inhibition of EGF-induced EGFR L858R/T790M mutant-mediated ERK phosphorylation in human […] cells after 1 hr by immunoblotting method; assay type: cell-based
[8] = target: T2, Epidermal growth factor receptor; test: Inhibition of EGF-induced EGFR L858R/T790M mutant-mediated pS6 phosphorylation in human […] cells after 1 hr by immunoblotting method; assay type: cell-based
[9] = target: T2, Epidermal growth factor receptor; test: Inhibition of EGF-induced EGFR L858R/T790M mutant-mediated Akt phosphorylation in human […] cells after 1 hr by immunoblotting method; assay type: cell-based
[10] = target: T1, Epidermal growth factor receptor; test: Inhibition of EGF-induced EGFR-mediated pS6 phosphorylation in human A431 cells after 1 hr by immunoblotting method; assay type: cell-based, A-431
[11] = target: T1, Epidermal growth factor receptor; test: Inhibition of EGF-induced EGFR autophosphorylation in human A431 cells at 1 uM after 10 mins by immunoblotting method; assay type: cell-based; details: A-431
[12] = Inhibition of EGF-induced EGFR E746 to E750 deletion mutant autophosphorylation in human HCC827 cells after 1 hr by immunoblotting method; assay type: cell-based; details: HCC827, 1 h
[13] = Inhibition of EGF-induced EGFR E746 to E750 deletion mutant-mediated pS6 phosphorylation in human HCC827 cells after 1 hr by immunoblotting method; assay type: cell-based; details: HCC827, 1 h
[14] = target: T1, Epidermal growth factor receptor; test: Inhibition of EGF-induced EGFR autophosphorylation in human A431 cells after 1 hr by immunoblotting method; assay type: cell-based, A-431
[15] = target: T2, Epidermal growth factor receptor; test: Inhibition of EGF-induced EGFR L858R/T790M mutant autophosphorylation in human […] cells after 1 hr by immunoblotting method; assay type: cell-based
Homo sapiens = species: Homo sapiens; test: Covalent binding affinity to EGFR C773S mutant (unknown origin) after 1 hr by mass spectrometry
[16] = target: T1, Epidermal growth factor receptor; test: Inhibition of EGF-induced EGFR-mediated Akt phosphorylation in human A431 cells after 1 hr by immunoblotting method; assay type: cell-based, A-431
[17] = target: T1, Epidermal growth factor receptor; test: Inhibition of EGF-induced EGFR autophosphorylation in human A431 cells at 1 uM after 2 mins by immunoblotting method; assay type: cell-based; details: A-431
[18] = Inhibition of EGF-induced EGFR E746 to E750 deletion mutant-mediated Akt phosphorylation in human HCC827 cells after 1 hr by immunoblotting method; assay type: cell-based; details: HCC827, 1 h
[19] = target: T1, Epidermal growth factor receptor; test: Inhibition of EGF-induced EGFR-mediated ERK phosphorylation in human A431 cells after 1 hr by immunoblotting method; assay type: cell-based, A-431
[20] = target: T1, Epidermal growth factor receptor; test: Reversible inhibition of EGF-induced EGFR autophosphorylation in human A431 cells assessed as residual activity compound preincubated at 1 uM for 1 hr measured after 8 hrs post compound washout by immunoblotting method; assay type: cell-based; details: A-431
[21] = target: T1, Epidermal growth factor receptor; test: Reversible inhibition of EGF-induced EGFR autophosphorylation in human A431 cells assessed as residual activity compound preincubated at 1 uM for 1 hr measured after 1 hr post compound washout by immunoblotting method; assay type: cell-based; details: A-431

| GI50 (A-431) [nM] | Activity [1] | GI50 (NCI-H1975) [nM] | IC50 [2] [nM] | IC50 [3] [nM] | EC50 [7] [nM] | EC50 [8] [nM] | EC50 [9] [nM] | IC50 [10] [nM] | EC50 [12] [nM] | EC50 [13] [nM] | IC50 [14] [nM] | EC50 [15] [nM] | IC50 [16] [nM] | EC50 [18] [nM] | IC50 [19] [nM] | SMILES | GI50 [5] [nM] | also measured |
| --- | --- | --- | --- | --- | --- | --- | --- | --- | --- | --- | --- | --- | --- | --- | --- | --- | --- | --- |
| 18 | > 80% | 134 | < 1 | 5.4 | 172 | 427 | 166 | 511 | < 20 | < 20 | 49 | 441 | 104 | < 20 | 509 | C=CC(=O)Nc1cccc(Nc2cc(Nc3cccc(Br)c3)ncn2)c1 | < 5 | inhibition [4]: Active; inhibition [6]: Active; inhibition [11]: 90%; Activity (Homo sapiens): inactive; inhibition [17]: 50% |
| 18 | inactive | 89 | < 1 | > 5000 | > 5000 | > 5000 | > 4580 | 243 | 27 | < 20 | 166 | > 5000 | 136 | < 20 | 1160 | CCC(=O)Nc1cccc(Nc2cc(Nc3cccc(Br)c3)ncn2)c1 | 15 | Activity [20]: 60%; Activity [21]: 20% |
